Assays:
FGFR2 = FGFR2 (Homo sapiens, UniProt P21802); experiment: FGFR wild type enzyme assay (HTRF KinEASE-TK), FGFR2
FGFR2-WT = FGFR2-WT (Homo sapiens, UniProt P21802); experiment: Phosphorylated FGFR2-WT (pFGFR2-WT) cell assay, KATOIII cells; type: cell-based; conditions: Table 4
Method: Phosphorylated FGFR2-WT (pFGFR2-WT) Cell Assay:
KATOIII cells were grown in the appropriate growth medium, IMDM supplemented with 20% fetal bovine serum. Cells were seeded into a 384-well at 1×10^5 cells/25 μL/well. Cells were treated with compound using three-fold serial dilutions at final concentrations ranging from 10 μM to 0.5 nM. Compound was incubated on cells for 1 hour at 37° C., 5% CO2.
Following the 1-hour incubation with compounds, cell lysates were prepared and phospho FGFR2 was measured using the HTRF Phospho-FGFR2 (TYR653/654) Detection Kits (CisBio, cat #64FGFR2Y6PEG). 8 μL of cell lysis buffer (4×) supplied with 1× Phospho and Total protein blocking reagent (CisBio, cat #64FGFR2Y6PEG, CisBio, cat #64KB1AAC) was then added to the wells. Cells were incubated with lysis buffer for 40 minutes at 4° C. under shaking conditions. Plates were centrifuged at 1500 rpm for 3 min and then 16 μL of cell lysate was transferred from the cell-culture plate to a small volume detection plate with the added premixed antibody solutions (4 μL) (CisBio, cat #64FGFR2Y6PEG). Plates were centrifuged at 1000 rpm for 1 min then incubated at 25° ° C. for 120 min, then overnight at 4° C. Plates were read on the EnVision multimode plate reader via HTRF dual wavelength detection. One hundred percent of control (POC) was determined using DMSO treated samples, and 0 POC was determined using the top concentration of a control compound. A 4-parameter logistic curve was fit to the POC values as a function of compound concentration to determine the IC50 value.

FGFR2 V564I = FGFR2 V564I (Homo sapiens, UniProt P21802, V564I); experiment: FGFR mutant enzyme assay (HTRF KinEASE-TK), FGFR2 V564I; type: biochemical; conditions: Table 4
Source text: (§1) (Catalogue number 62TK0PEC).

FGFR2 V564F = FGFR2 V564F (Homo sapiens, UniProt P21802, V564F); experiment: FGFR mutant enzyme assay (HTRF KinEASE-TK), FGFR2 V564F; type: biochemical; conditions: Table 4
Source text: as §1

FGFR2 N549H = FGFR2 N549H (Homo sapiens, UniProt P21802, N549H); experiment: FGFR mutant enzyme assay (HTRF KinEASE-TK), FGFR2 N549H; type: biochemical; conditions: Table 4
Source text: as §1

Sequence of FGFR2 (P21802 399-821 limits assumed): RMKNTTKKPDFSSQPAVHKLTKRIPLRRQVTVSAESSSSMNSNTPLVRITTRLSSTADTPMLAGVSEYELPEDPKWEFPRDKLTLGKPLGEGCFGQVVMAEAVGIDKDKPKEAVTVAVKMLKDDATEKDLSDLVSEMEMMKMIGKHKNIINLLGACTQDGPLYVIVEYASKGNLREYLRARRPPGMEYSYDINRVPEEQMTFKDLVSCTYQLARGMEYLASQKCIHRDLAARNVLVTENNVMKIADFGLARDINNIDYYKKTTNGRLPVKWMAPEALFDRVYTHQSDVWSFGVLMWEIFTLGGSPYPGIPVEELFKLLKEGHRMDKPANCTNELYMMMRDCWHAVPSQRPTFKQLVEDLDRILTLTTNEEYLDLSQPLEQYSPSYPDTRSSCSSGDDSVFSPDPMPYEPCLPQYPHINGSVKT
Sequence of FGFR2 N549H (P21802 399-821 N549H limits assumed): as the sequence (P21802 399-821 limits assumed) above, with N151H counted along it
Sequence of FGFR2 V564F (P21802 399-821 V564F limits assumed): as the sequence (P21802 399-821 limits assumed) above, with V166F counted along it
Sequence of FGFR2 V564I (P21802 399-821 V564I limits assumed): as the sequence (P21802 399-821 limits assumed) above, with V166I counted along it
Sequence of FGFR2-WT (P21802 22-821): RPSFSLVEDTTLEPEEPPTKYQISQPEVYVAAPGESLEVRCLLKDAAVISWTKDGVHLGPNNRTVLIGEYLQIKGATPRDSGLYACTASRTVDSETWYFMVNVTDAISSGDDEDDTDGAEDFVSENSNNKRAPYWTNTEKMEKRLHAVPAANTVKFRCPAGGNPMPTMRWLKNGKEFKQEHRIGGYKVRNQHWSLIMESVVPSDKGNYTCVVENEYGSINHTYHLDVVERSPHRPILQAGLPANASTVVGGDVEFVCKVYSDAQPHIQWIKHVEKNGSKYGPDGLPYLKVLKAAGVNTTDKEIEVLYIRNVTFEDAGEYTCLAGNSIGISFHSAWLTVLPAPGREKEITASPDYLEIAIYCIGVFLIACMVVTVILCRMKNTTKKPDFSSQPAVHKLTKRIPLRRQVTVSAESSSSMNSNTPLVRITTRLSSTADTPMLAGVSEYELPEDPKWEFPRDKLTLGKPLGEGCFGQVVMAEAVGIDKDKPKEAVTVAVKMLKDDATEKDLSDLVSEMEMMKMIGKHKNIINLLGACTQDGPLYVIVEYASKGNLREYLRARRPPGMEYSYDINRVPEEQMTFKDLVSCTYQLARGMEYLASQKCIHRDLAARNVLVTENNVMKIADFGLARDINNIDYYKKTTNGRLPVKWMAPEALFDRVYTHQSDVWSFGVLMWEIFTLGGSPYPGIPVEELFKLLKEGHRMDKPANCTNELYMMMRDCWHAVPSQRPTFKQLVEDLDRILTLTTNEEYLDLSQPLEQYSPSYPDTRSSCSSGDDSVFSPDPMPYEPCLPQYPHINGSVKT

Row | SMILES | IC50 (FGFR2; Enz FGFR2 (nM)) [nM] | IC50 (FGFR2; FGFR2 Enz, Table 4) [nM] | IC50 (FGFR2-WT) [nM] | IC50 (FGFR2 V564I) [nM] | IC50 (FGFR2 V564F) [nM] | IC50 (FGFR2 N549H) [nM]
1 | Cc1nc(Sc2cc(-c3cnn(C4CCN(C)CC4)c3C)cn3ncc(C#N)c23)ccc1F [Example 128] | 5 | 0.12 | 41 | 12 | 9 | 4
2 | Cc1c(-c2cc(Sc3cccc(F)c3C#N)c3c(C#N)cnn3c2)cnn1C1CCNCC1 [Example 130, 4-(2-cyano-3-fluoro-phenyl)sulfanyl-6-[5-methyl-1-(4-piperidyl)pyrazol-4-yl]pyrazolo[1,5-a]pyridine-3-carbonitrile] | 2 | 1 | 117 | 5 | 4 | 3

— US20240270741A1 (Cogent Biosciences, Inc., priority 2023, published 2024)
